Ends that are not written are not given here.
Legend:
skin mast cells [1] = experiment: Effect of drug pretreatment on dye extravasation induced by CRH; type: in vivo, rat; details: for Dye Extravasation (color intensity) by CRH after drug pretreatment: drug 10^-4 M pretreatment, then CRH 10^-4 M, n = 3
Protocol: (§1) 1. For extravasation experiments, male Sprague/Dawley rats, each weighing approximately 350 g (Taconic Farms, Germantown, N.Y.), were anesthetized with a single intraperitoneal injection of 0.5 ml ketamine and 0.5 ml xylazine (20 mg/ml each) and then injected intravenously with 0.1 ml of 1% Evan's blue 60 min prior to treatment.
(§2) 3. The pretreatment solution, when appropriate, was drawn first in the syringe followed by CRH from which it was separated by an air bubble. The pretreatment solution was injected first and was allowed to remain in the skin for 1 min; the needle was then changed, the air bubble ejected and CRH was injected and allowed to stay in the skin for 5 min. The animal was then killed by asphyxiation over CO2 vapor and decapitated; the skin was removed, turned over and photographed.

pleural mast cells = experiment: Histamine release from purified pleural mast cells; type: cell-based, rat
peritoneal mast cells = experiment: Histamine release from purified peritoneal mast cells; type: cell-based, rat
skin mast cells [2] = experiment: Dye (Evan's blue) extravasation after intradermal injection; type: in vivo, rat
Protocol: as §1, §2

skin mast cells [3] = experiment: Skin mast cell activation by CRH in rats treated neonatally with capsaicin; type: in vivo, rat; details: CRH 10^-4 M, neonatal capsaicin
skin mast cells [4] = experiment: Ultrastructural analysis of CRH-treated skin mast cells; type: in vivo, rat; details: CRH-injected sites
Source text: The effect of CRH on both vasodilation and mast cell activation was dose-dependent from 10^-4 M-10^-8 M (Table 1).

skin mast cells [5] = experiment: Skin mast cell degranulation at injection site, light microscopy (toluidine blue); type: in vivo, rat; details: for Mast Cell Degranulation, Deg. MC: count of degranulated mast cells
Source text: 4. In other rats, the skin was rapidly removed at the end of the injection period and was fixed in 4% paraformaldehyde for light microscopy (Theoharides et al., Int. Arch. Allergy Immunol. 102:352 (1993)), which is incorporated herein by reference in its entirety. The tissue was then frozen and thin sections (7 μ) were cut using a cryostat (Jung CM 3000, Leica, Luc. Deerfield, Ill.). The sections were stained with acidified (pH<2.5) toluidine blue (Sigma, St. Louis) and all mast cells were counted, by two different researchers blinded to the experimental conditions, at 400× magnification using a Diaphot inverted Nikon microscope (Don Santo, Mass.).

Compound: CC(C)(C)c1ccc(C(O)CCCN2CCC(C(O)(c3ccccc3)c3ccccc3)CC2)cc1 (stereo not drawn) [Terfenadine, terfenadine]
- Dye Extravasation (color intensity) by CRH after drug pretreatment (skin mast cells [1]): reduced the CRH effect slightly

Compound: substance P [SP]
- Histamine Release (% total), Pleural + Calcium (pleural mast cells; 10^-4 M): 49.346 % total
- Histamine Release (% total), Pleural - Calcium (pleural mast cells; 10^-4 M): 54.591 % total
- Histamine Release (% total), Pleural + Calcium (pleural mast cells; 10^-5 M): 22.919 % total
- Histamine Release (% total), Pleural - Calcium (pleural mast cells; 10^-5 M): 28.871 % total
- Histamine Release (% total), Pleural + Calcium (pleural mast cells; 10^-6 M): 2.088 % total
- Histamine Release (% total), Pleural - Calcium (pleural mast cells; 10^-6 M): 8.538 % total
- Histamine Release (% total), Peritoneal Calcium (peritoneal mast cells; 10^-5 M): 39.5 % total

Compound: Corticotropin-Releasing Hormone (SEEPPISLDLTFHLLREVLEMARAEQLAQQAHSNRKLMEII; ends and bridges not checked; UniProt P06850 154-194, looked up) [CRH, major regulator of the hypothalamic-pituitary-adrenal axis; peptide from Sigma]
- Histamine Release (% total), Pleural + Calcium (pleural mast cells; 10^-4 M): 22.06 % total
- Histamine Release (% total), Pleural - Calcium (pleural mast cells; 10^-4 M): 34.244 % total
- Histamine Release (% total), Pleural + Calcium (pleural mast cells; 10^-5 M): 2.102 % total
- Histamine Release (% total), Pleural - Calcium (pleural mast cells; 10^-5 M): 8.579 % total
- Histamine Release (% total), Pleural + Calcium (pleural mast cells; 10^-6 M): 1.411 % total
- Histamine Release (% total), Pleural - Calcium (pleural mast cells; 10^-6 M): 4.253 % total
- histamine release from pleural mast cells (pleural mast cells; in words, required absence of extracellular calcium ions): induced histamine release
- dose dependence of effect on vasodilation and mast cell activation (skin mast cells [2]; 10^-4 M-10^-8 M): dose-dependent
- skin vascular permeability, as evidenced by dye extravasation (skin mast cells [2]; compared with equimolar C48/80 or SP): marked increases
- mast cell activation in capsaicin-treated animals (skin mast cells [3]): unaffected
- Histamine Release (% total), Peritoneal Calcium (peritoneal mast cells; 10^-4 M): 25.5 % total
- Histamine Release (% total), Peritoneal + Calcium (peritoneal mast cells; 10^-4 M): 6.3 % total
- Histamine Release (% total), Peritoneal Calcium (peritoneal mast cells; 10^-5 M): 6.9 % total
- Histamine Release (% total), Peritoneal + Calcium (peritoneal mast cells; 10^-5 M): 1.9 % total
- Histamine Release (% total), Peritoneal Calcium (peritoneal mast cells; 10^-6 M): 4.9 % total
- Histamine Release (% total), Peritoneal + Calcium (peritoneal mast cells; 10^-6 M): 2.0 % total
- effect on peritoneal mast cells (histamine release) (peritoneal mast cells; in words): largely ineffective
- ultrastructural signs of mast cell activation (loss of electron dense granule content) (skin mast cells [4]): obvious sign of activation
- Mast Cell Degranulation, Deg. MC (skin mast cells [5]; 10^-4 M): 426
- Mast Cell Degranulation, % total deg. (skin mast cells [5]; 10^-5 M): 37 % total
- Mast Cell Degranulation, Deg. MC (skin mast cells [5]; 10^-5 M): 327
- Mast Cell Degranulation, % total deg. (skin mast cells [5]; 10^-6 M): 42 % total
- Mast Cell Degranulation, Deg. MC (skin mast cells [5]; 10^-6 M): 331
- Mast Cell Degranulation, % total deg. (skin mast cells [5]; 10^-7 M): 37 % total
- Mast Cell Degranulation, Deg. MC (skin mast cells [5]; 10^-7 M): 329
- Mast Cell Degranulation, % total deg. (skin mast cells [5]; 10^-8 M): 32 % total
- Mast Cell Degranulation, Deg. MC (skin mast cells [5]; 10^-8 M): 254
- Mast Cell Degranulation, % total deg. (skin mast cells [5]; 10^-9 M): 28 % total
- Mast Cell Degranulation, Deg. MC (skin mast cells [5]; 10^-9 M): 202
- Mast Cell Degranulation, % total deg. (skin mast cells [5]; 10^-10 M): 26 % total
- Mast Cell Degranulation, Deg. MC (skin mast cells [5]; 10^-10 M): 239

Compound: CN(C)CCC=C1c2ccccc2COc2ccccc21 [Doxepin, doxepin]
- Dye Extravasation (color intensity) by CRH after drug pretreatment (skin mast cells [1]): blocked the CRH effect entirely

Compound: C[C@H](N)C(=O)NCC(=O)N[C@H]1CSSC[C@@H](C(=O)O)NC(=O)[C@H](CO)NC(=O)[C@H]([C@@H](C)O)NC(=O)[C@H](Cc2ccccc2)NC(=O)[C@H]([C@@H](C)O)NC(=O)[C@H](CCCCN)NC(=O)[C@H](Cc2c[nH]c3ccccc23)NC(=O)[C@H](Cc2ccccc2)NC(=O)[C@H](Cc2ccccc2)NC(=O)[C@H](CC(N)=O)NC(=O)[C@H](CCCCN)NC1=O [Somatostatin, somatostatin]
- fluid extravasation, substance alone (skin mast cells [2]; 10^-12 M): still apparent
- fluid extravasation, substance alone (skin mast cells [2]; alone, as strong as that seen with CRH): significant fluid extravasation
- Dye Extravasation (color intensity) by CRH after drug pretreatment (skin mast cells [1]): more dye extravasation than CRH alone

Compound: [D-Phe^12 Nle^21,38, Ala^32 ]rCRH(12-41) [CRH-α]
- inhibition of dye extravasation by CRH (skin mast cells [1]; antagonist 10^-4 M, CRH 10^-6 M): could not inhibit
- block of the effect of CRH (skin mast cells [1]; plasma extravasation and mast cell degranulation): did not block
- Mast Cell Degranulation, % total deg. (skin mast cells [5]; 10^-4 M): 25 % total
- Mast Cell Degranulation, Deg. MC (skin mast cells [5]; 10^-4 M): 28

Compound: OCCOCCN1CCN(C(c2ccccc2)c2ccc(Cl)cc2)CC1 (stereo not drawn) [Hydroxyzine, hydroxyzine]
- Dye Extravasation (color intensity) by CRH after drug pretreatment (skin mast cells [1]): blocked the CRH effect entirely
